Experiment [1] deals with Beta-1 adrenergic receptor (Homo sapiens, UniProt P08588). In kind it is functional, cell-based.
Experiment [2] has as its target Beta-2 adrenergic receptor (Homo sapiens, UniProt P07550). In kind it is functional, cell-based.
For experiment [3], the target named is T1, Cannabinoid receptor 1 (Homo sapiens, UniProt P21554). In kind it is functional, cell-based.
In experiment [4] the target is T1, Cannabinoid receptor 1. In kind it is functional, cell-based. The source holds these as a separate data set.
For experiment [5], the target named is T2, Endothelin-1 receptor (Homo sapiens, UniProt P25101).
T2 sequence (P25101 whole entry): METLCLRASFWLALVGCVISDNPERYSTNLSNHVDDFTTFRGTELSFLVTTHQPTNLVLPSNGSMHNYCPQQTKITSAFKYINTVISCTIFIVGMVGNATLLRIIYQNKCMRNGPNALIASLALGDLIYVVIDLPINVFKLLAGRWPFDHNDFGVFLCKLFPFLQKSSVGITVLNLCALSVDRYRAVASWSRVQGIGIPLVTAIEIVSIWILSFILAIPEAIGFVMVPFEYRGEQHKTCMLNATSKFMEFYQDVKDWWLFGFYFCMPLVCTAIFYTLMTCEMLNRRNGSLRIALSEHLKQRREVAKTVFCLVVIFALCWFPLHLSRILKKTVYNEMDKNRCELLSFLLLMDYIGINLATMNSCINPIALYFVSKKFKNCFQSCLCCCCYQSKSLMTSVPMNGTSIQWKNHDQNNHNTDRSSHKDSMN

The target of experiment [6] is Growth hormone secretagogue receptor type 1 (Homo sapiens, UniProt Q92847).
Growth hormone secretagogue receptor type 1, sequence (Q92847 whole entry): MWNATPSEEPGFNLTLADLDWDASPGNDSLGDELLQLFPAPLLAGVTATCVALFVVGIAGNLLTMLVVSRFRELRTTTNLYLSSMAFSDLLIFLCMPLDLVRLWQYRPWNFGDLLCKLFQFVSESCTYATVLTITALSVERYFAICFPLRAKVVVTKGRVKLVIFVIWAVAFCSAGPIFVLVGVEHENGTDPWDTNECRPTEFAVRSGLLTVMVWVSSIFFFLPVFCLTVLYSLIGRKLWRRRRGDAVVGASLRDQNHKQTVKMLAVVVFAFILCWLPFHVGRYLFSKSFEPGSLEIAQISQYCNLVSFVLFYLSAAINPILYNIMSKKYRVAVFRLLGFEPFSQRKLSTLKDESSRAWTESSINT
Experiment [7] has as its target T3, 5-hydroxytryptamine receptor 1A (Homo sapiens, UniProt P08908).
T3 sequence (P08908 whole entry): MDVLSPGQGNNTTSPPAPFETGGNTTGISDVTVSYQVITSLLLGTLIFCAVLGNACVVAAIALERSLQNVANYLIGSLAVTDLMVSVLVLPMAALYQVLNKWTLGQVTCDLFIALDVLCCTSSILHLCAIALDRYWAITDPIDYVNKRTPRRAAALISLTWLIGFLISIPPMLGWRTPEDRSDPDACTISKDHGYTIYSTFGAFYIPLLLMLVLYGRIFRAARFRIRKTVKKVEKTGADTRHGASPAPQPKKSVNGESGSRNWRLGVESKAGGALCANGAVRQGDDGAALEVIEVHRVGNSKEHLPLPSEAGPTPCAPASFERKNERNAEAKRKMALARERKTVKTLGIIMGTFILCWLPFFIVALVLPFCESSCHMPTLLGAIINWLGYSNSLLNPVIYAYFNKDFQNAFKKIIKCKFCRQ
The experiment is classed as functional, cell-based.

For experiment [8], the target named is 5-hydroxytryptamine receptor 2B (Homo sapiens, UniProt P41595). In kind it is functional, cell-based.
5-hydroxytryptamine receptor 2B, sequence (P41595 whole entry): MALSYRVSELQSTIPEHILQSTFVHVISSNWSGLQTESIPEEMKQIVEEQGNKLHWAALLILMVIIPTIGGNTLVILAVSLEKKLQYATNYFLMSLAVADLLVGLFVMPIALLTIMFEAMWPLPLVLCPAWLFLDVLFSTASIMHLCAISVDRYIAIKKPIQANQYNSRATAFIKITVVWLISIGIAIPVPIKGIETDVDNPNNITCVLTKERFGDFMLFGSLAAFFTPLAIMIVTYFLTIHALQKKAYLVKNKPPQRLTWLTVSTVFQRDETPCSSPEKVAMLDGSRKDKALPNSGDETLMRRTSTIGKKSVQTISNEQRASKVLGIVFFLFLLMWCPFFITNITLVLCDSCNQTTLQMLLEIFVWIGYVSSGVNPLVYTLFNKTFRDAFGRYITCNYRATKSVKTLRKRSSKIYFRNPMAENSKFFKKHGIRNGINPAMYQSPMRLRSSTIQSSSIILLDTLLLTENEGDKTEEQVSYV
Experiment [9] concerns the target T4, Neuropeptide Y receptor type 1 (Homo sapiens, UniProt P25929).
T4 sequence (P25929 whole entry): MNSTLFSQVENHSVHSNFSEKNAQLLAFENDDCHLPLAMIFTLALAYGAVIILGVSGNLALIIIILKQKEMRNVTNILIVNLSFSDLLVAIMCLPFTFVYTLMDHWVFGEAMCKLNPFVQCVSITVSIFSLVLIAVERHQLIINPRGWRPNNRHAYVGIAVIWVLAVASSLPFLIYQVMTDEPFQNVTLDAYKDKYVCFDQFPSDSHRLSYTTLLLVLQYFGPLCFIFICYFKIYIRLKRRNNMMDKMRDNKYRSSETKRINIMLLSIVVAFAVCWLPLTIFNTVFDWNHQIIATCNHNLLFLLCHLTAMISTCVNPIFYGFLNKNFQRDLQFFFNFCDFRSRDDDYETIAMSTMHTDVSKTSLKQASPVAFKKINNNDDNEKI
The note with it: read-out: AC50.

The target in experiment [10] is T5, 5-hydroxytryptamine receptor 2A (Homo sapiens, UniProt P28223). The experiment is classed as functional, cell-based.
T5 sequence (P28223 whole entry): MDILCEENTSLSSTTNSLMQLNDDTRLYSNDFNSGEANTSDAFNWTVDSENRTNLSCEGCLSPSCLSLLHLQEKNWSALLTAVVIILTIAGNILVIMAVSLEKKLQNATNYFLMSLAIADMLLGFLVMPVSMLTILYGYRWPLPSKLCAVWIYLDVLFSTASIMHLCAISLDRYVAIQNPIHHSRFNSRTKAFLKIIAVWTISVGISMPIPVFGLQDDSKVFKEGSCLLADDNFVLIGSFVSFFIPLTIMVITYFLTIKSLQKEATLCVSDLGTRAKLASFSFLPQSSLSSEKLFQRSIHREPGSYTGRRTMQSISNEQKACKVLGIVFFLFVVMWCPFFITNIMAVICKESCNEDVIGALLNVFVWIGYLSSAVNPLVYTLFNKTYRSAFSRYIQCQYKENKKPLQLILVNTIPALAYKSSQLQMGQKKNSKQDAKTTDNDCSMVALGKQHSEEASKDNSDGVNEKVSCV
In experiment [11] the target is T5, 5-hydroxytryptamine receptor 2A. The experiment is classed as functional, cell-based. This is another data set of the same source.
Experiment [12] deals with T6, Alpha-1A adrenergic receptor (Homo sapiens, UniProt P35348).
T6 sequence (P35348 whole entry): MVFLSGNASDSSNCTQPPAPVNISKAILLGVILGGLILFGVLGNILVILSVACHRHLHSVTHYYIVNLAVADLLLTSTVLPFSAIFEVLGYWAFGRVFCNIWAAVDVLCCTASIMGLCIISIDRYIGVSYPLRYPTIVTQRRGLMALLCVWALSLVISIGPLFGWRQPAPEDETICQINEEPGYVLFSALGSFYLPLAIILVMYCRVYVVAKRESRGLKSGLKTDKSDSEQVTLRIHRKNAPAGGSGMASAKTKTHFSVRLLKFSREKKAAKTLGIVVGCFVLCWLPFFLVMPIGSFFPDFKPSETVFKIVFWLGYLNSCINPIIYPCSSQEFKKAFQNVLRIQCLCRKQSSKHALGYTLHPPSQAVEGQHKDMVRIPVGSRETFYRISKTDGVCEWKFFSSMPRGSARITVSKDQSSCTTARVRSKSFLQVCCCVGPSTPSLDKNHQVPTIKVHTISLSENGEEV

Experiment [13] deals with T1, Cannabinoid receptor 1.
The target of experiment [14] is Melanocortin receptor 4 (Homo sapiens, UniProt P32245).
Melanocortin receptor 4, sequence (P32245 whole entry): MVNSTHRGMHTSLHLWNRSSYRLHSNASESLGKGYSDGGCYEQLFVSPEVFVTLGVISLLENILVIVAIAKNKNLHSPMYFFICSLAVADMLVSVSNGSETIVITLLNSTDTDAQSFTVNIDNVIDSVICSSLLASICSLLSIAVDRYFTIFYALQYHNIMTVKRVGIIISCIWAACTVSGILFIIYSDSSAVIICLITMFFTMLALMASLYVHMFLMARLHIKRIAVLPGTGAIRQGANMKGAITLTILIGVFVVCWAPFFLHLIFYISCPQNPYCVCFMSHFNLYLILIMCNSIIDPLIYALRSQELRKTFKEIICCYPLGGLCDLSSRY
Experiment [15] has as its target Mu-type opioid receptor (Homo sapiens, UniProt P35372).

We go through 9 molecules from ChEMBL document CHEMBL5291721, “A preclinical secondary pharmacology resource illuminates target-adverse drug reaction associations of marketed drugs” (Nat Commun, 2023).

Molecules are shown by their SMILES. Bounds are passed on as bounds.
Note: assay procedure not described here.

T1 sequence (P21554 whole entry): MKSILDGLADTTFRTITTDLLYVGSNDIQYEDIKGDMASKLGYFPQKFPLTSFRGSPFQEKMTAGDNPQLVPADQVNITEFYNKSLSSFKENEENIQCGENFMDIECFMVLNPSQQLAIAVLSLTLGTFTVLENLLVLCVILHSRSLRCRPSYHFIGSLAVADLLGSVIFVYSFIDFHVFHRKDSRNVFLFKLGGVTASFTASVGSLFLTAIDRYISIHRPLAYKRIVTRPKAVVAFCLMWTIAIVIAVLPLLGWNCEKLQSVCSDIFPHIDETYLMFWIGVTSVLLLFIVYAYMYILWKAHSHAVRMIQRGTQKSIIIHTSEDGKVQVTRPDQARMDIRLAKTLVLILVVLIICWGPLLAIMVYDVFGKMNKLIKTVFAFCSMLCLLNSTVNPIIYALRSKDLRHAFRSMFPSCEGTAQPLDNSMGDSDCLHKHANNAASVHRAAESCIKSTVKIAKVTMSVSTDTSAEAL
Beta-1 adrenergic receptor, sequence (P08588 whole entry): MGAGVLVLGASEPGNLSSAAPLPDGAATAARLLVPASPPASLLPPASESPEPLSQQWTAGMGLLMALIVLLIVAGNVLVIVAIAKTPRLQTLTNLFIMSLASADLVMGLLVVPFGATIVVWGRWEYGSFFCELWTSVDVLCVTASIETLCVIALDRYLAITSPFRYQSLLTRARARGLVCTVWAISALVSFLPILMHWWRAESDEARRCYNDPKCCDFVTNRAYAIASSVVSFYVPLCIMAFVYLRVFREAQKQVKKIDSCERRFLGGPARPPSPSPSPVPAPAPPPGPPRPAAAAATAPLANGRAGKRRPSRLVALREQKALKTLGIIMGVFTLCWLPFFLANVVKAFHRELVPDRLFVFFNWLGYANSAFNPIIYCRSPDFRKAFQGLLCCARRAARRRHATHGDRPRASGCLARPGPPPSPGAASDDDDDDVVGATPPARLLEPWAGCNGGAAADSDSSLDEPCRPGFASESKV
Beta-2 adrenergic receptor, sequence (P07550 whole entry): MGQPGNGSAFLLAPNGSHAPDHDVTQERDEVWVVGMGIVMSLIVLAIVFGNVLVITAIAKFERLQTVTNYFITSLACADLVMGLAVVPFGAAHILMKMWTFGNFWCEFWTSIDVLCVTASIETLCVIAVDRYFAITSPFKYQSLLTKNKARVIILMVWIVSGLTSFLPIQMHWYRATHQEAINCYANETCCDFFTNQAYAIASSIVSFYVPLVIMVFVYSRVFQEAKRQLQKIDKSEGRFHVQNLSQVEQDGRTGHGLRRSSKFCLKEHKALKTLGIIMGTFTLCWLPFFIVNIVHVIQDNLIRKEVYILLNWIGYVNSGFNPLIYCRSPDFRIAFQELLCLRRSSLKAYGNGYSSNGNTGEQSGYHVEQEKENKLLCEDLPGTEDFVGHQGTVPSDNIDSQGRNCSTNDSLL
Mu-type opioid receptor, sequence (P35372 whole entry): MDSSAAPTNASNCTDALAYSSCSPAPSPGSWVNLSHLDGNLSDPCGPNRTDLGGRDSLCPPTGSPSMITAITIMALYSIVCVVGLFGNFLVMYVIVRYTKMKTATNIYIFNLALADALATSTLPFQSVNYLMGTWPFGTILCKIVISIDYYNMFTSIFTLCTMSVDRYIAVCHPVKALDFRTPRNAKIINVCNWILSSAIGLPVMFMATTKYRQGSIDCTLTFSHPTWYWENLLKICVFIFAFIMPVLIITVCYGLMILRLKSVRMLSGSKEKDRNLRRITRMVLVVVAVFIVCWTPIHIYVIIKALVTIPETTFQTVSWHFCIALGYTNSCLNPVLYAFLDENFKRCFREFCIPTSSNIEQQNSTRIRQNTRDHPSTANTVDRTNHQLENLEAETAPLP

On to `O=C(O)CCNC(=O)c1ccccc1` [BETAMIPRON], for which the AC50 in experiment [1], in [2], in [3], in [4], in [5] and in experiment [6] was over 30 µM throughout. Besides, the AC50 in [7], in experiment [8] and in experiment [9] was over 30 µM throughout.
Regarding `CCC(COC(=O)c1cc(OC)c(OC)c(OC)c1)(c1ccccc1)N(C)C` (centres undefined) [TRIMEBUTINE], the AC50 in experiment [1], in experiment [2], in experiment [3], in experiment [4], in [5] and in [6] was over 30 µM each time. The AC50 in [7], in experiment [10], in experiment [11], in experiment [8] and in experiment [9] was over 30 µM in each case.
Take `O=C(O)c1ccccc1Nc1cc(Cl)ccc1C(=O)O` [LOBENZARIT]: the AC50 in [1], in [2], in [3], in experiment [4], in experiment [5] and in experiment [6] was over 30 µM throughout. Moreover, the AC50 in [10], in [11], in experiment [8] and in experiment [9] was over 30 µM in each case.
Regarding `Oc1ccc2c(c1)[C@@]13CCCC[C@@]1(O)[C@@H](C2)N(CC1CCC1)CC3` [BUTORPHANOL], the AC50 in [2], in experiment [3], in [4], in experiment [5], in experiment [6] and in [7] was over 30 µM in each case. Moreover, the AC50 in experiment [10], in experiment [11], in [8] and in experiment [9] was over 30 µM in each case.
With `CCCCCC(=O)O[C@]1(C(C)=O)CC[C@H]2[C@@H]3CCC4=CC(=O)CC[C@]4(C)[C@H]3CC[C@@]21C` [HYDROXYPROGESTERONE CAPROATE], the AC50 in [12], in experiment [2], in experiment [3], in [4], in experiment [13] and in experiment [6] was over 30 µM throughout. Besides, the AC50 in [10], in experiment [11], in experiment [8], in experiment [14] and in experiment [9] was over 30 µM throughout.
In the case of `CCN(CC)C(=O)Nc1ccc(OCC(O)CNC(C)(C)C)c(C(C)=O)c1` (centres undefined) [CELIPROLOL], the AC50 in experiment [1], in [2], in [3], in experiment [4], in experiment [5] and in experiment [6] was over 30 µM each time. For the same molecule, the AC50 in experiment [7], in experiment [10], in experiment [11], in experiment [8] and in experiment [9] was over 30 µM in each case.
With `COc1ccc(-c2noc(CC(=O)O)c2-c2ccc(OC)cc2)cc1` [MOFEZOLAC], the AC50 in [1], in [2], in experiment [3], in [4], in experiment [5] and in experiment [6] was over 30 µM throughout. The AC50 in [10], in [11], in experiment [8] and in [9] was over 30 µM in each case.
Consider `CC(=O)O[C@H](CC(=O)[O-])C[N+](C)(C)C` [ACETYLCARNITINE], for which the AC50 in experiment [1], in [2], in experiment [3], in experiment [4], in experiment [5] and in [6] was over 30 µM in each case. For the same molecule, the AC50 in experiment [10], in experiment [11], in [8] and in [9] was over 30 µM throughout.
In the case of `O=C1CN=C(c2ccccn2)c2cc(Br)ccc2N1` [BROMAZEPAM], the AC50 in [12] was over 10 µM; in [2], over 30 µM; in experiment [3], over 30 µM; in experiment [13], over 10 µM; in [6], over 10 µM; in experiment [7] it was over 10 µM. Further, the AC50 is over 10 µM in experiment [10]; over 10 µM in experiment [11]; over 10 µM in experiment [8]; over 10 µM in experiment [14]; over 10 µM in [9]; over 30 µM in [15].
